From ChEMBL document CHEMBL5226342, “Novel Reversible-Binding PET Ligands for Imaging Monoacylglycerol Lipase Based on the Piperazinyl Azetidine Scaffold” (J Med Chem, 2021)

Experiments:
[1] = Drug uptake in iv dosed rhesus monkey striatum by PET imaging based analysis; type: ADME, organism-based, Macaca mulatta; details: in vivo
[2] = Drug uptake in iv dosed Sprague-Dawley rat cerebral cortex measured for 90 mins by PET imaging based analysis; type: ADME, organism-based; details: in vivo, 1.5 h
[3] = Drug uptake in iv dosed rhesus monkey cortex measured after 60 mins by PET imaging based analysis; type: ADME, organism-based, Macaca mulatta; details: in vivo, 1 h
[4] = Metabolic stability of the compound in iv dosed Sprague-Dawley rat plasma assessed as parent compound remaining measured after 30 mins by radio-HPLC analysis; type: ADME, organism-based; details: read-out: Stability
[5] = Drug uptake in iv dosed rhesus monkey pons measured after 60 mins by PET imaging based analysis; type: ADME, organism-based, Macaca mulatta; details: in vivo, 1 h
[6] = Drug uptake in iv dosed rhesus monkey cortex pretreated with MAGL inhibitor, […] PET imaging based analysis; type: ADME, organism-based, Macaca mulatta; details: in vivo
[7] = Drug uptake in iv dosed rhesus monkey hippocampus pretreated with MAGL inhibitor, […] PET imaging based analysis; type: ADME, organism-based, Macaca mulatta; details: in vivo
[8] = Drug uptake in iv dosed Sprague-Dawley rat cerebellum measured for 90 mins by PET imaging based analysis; type: ADME, organism-based; details: in vivo, 1.5 h
[9] = Drug uptake in iv dosed rhesus monkey hippocampus measured after 60 mins by PET imaging based analysis; type: ADME, organism-based, Macaca mulatta; details: in vivo, 1 h
[10] = Drug uptake in iv dosed Sprague-Dawley rat hippocampus measured for 90 mins by PET imaging based analysis; type: ADME, organism-based; details: in vivo, 1.5 h
[11] = Metabolic stability of the compound in iv dosed Sprague-Dawley rat brain assessed as parent compound remaining measured after 60 mins by radio-HPLC analysis; type: ADME, organism-based; details: read-out: Stability
[12] = Drug uptake in iv dosed Sprague-Dawley rat striatum measured for 90 mins by PET imaging based analysis; type: ADME, organism-based; details: in vivo, 1.5 h
[13] = Drug uptake in iv dosed rhesus monkey cerebellum by PET imaging based analysis; type: ADME, organism-based, Macaca mulatta; details: in vivo
[14] = Drug uptake in iv dosed rhesus monkey cerebellum pretreated with MAGL inhibitor, […] PET imaging based analysis; type: ADME, organism-based, Macaca mulatta; details: in vivo
[15] = Drug uptake in iv dosed rhesus monkey striatum measured after 60 mins by PET imaging based analysis; type: ADME, organism-based, Macaca mulatta; details: in vivo, 1 h
[16] = Drug uptake in iv dosed rhesus monkey pons by PET imaging based analysis; type: ADME, organism-based, Macaca mulatta; details: in vivo
[17] = Drug uptake in iv dosed CD-1 mouse small intestine measured after 60 mins by Ex vivo whole body biodistribution based analysis; type: ADME, organism-based; details: 1 h
[18] = Drug uptake in iv dosed rhesus monkey cortex by PET imaging based analysis; type: ADME, organism-based, Macaca mulatta; details: in vivo
[19] = Drug uptake in iv dosed rhesus monkey striatum pretreated with MAGL inhibitor, […] PET imaging based analysis; type: ADME, organism-based, Macaca mulatta; details: in vivo
[20] = Metabolic stability of the compound in iv dosed Sprague-Dawley rat brain assessed as parent compound remaining measured after 30 mins by radio-HPLC analysis; type: ADME, organism-based; details: read-out: Stability
[21] = Drug uptake in iv dosed CD-1 mouse pancreas measured after 60 mins by Ex vivo whole body biodistribution based analysis; type: ADME, organism-based; details: 1 h
[22] = Drug uptake in iv dosed rhesus monkey hippocampus by PET imaging based analysis; type: ADME, organism-based, Macaca mulatta; details: in vivo
[23] = Metabolic stability of the compound in iv dosed Sprague-Dawley rat plasma assessed as parent compound remaining measured after 60 mins by radio-HPLC analysis; type: ADME, organism-based; details: read-out: Stability
[24] = Drug uptake in iv dosed Sprague-Dawley rat pons measured for 90 mins by PET imaging based analysis; type: ADME, organism-based; details: in vivo, 1.5 h
[25] = Drug uptake in iv dosed rhesus monkey brain by PET imaging based analysis; type: ADME, organism-based, Macaca mulatta; details: in vivo
[26] = Drug uptake in mouse brain treated with MAGL inhibitor, JNJ-42226314 at 15 mins post-drug administration by PET imaging based analysis; type: ADME, tissue-based; details: in vivo, 0.25 h
[27] = Drug uptake in iv dosed CD-1 mouse liver measured after 60 mins by Ex vivo whole body biodistribution based analysis; type: ADME, organism-based; details: 1 h
[28] = Drug uptake in iv dosed CD-1 mouse kidney measured after 60 mins by Ex vivo whole body biodistribution based analysis; type: ADME, organism-based; details: 1 h
[29] = Drug uptake in iv dosed rhesus monkey cerebellum measured after 60 mins by PET imaging based analysis; type: ADME, organism-based, Macaca mulatta; details: in vivo, 1 h
[30] = Drug uptake in iv dosed CD-1 mouse heart measured after 60 mins by Ex vivo whole body biodistribution based analysis; type: ADME, organism-based; details: 1 h
[31] = Drug uptake in iv dosed CD-1 mouse lung measured after 60 mins by Ex vivo whole body biodistribution based analysis; type: ADME, organism-based; details: 1 h

Drug uptake [1]: Active | SUVmax [2]: 1.4 | Drug uptake [3]: Active | remaining at 0.5 h [4]: 53% | Drug uptake [5]: Not Active | Drug uptake [6]: Not Active | Drug uptake [7]: Not Active | Drug uptake [8]: Active | Drug uptake [9]: Active | Drug uptake [10]: Active | remaining at 1 h [11]: 98% | Drug uptake [12]: Active | Drug uptake [13]: Active | Drug uptake [14]: Not Active | Drug uptake [15]: Active | Drug uptake [16]: Active | Drug uptake [17]: Active | Drug uptake [18]: Active | Drug uptake [19]: Not Active | remaining at 0.5 h [20]: 95% | Drug uptake [21]: Not Active | Drug uptake [22]: Active | remaining at 1 h [23]: 40% | Drug uptake [24]: Active | SUVmax [25]: 1.2 | Drug uptake [26]: Not Active | Drug uptake [27]: Active | Drug uptake [28]: Not Active | Drug uptake [29]: Active | Drug uptake [30]: Not Active | Drug uptake [31]: Not Active
SMILES: O=C(c1ccc2c(ccn2-c2ccc([18F])cc2)c1)N1CC(N2CCN(c3ncccn3)CC2)C1
